How the values were obtained:
[1] = tested on: Smn protein in SMA patient fibroblast cells (GM03813); test: Smn protein assay in cultured cells (SMN HTRF); format: cell-based, human; conditions: SMA patient fibroblast cells, 48 hours; for EC1.5x for Smn protein expression: 7-point concentration curve, SMN HTRF, concentration producing 1.5 times Smn protein vs DMSO vehicle control; for maximum fold (Fold) increase of Smn protein: 7-point concentration data, fold relative to vehicle control
Procedure, shortened: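 Fibroblasts, SMA patient; 5,000 cells/well; 7-pt curve, 3.16-fold serial dilution; 48 h, 37 °C, 5% CO2; RIPA lysis 1 h RT; anti-SMN d2 + kryptate overnight RT; HTRF 665/620 nm; fold vs DMSO; EC1.5×, max fold.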

[2] = tested on: SMN2 minigene mRNA (SMN2-A minigene) in HEK293H cells; test: SMN2 minigene mRNA splicing RT-qPCR assay in cultured cells; format: cell-based, human; conditions: Homo sapiens, HEK293-H; concentration increasing full length SMN2 mRNA 1.5-fold relative to vehicle-treated cells; HEK293H cells with SMN2-A minigene, 24 hours, 7-point concentration data; read-out: EC1.5x for production of full length SMN2 mRNA
Procedure, shortened: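 Stable SMN2-A minigene HEK293H; cpd 7-pt 3.16-fold series, 200× in DMSO, 24 h, 37 °C, n=2. Lysates → multiplex RT-qPCR (minigene FL + GAPDH), efficiency-corrected ΔΔCt vs vehicle. EC1.5× = 1.5-fold FL mRNA gain.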

Row | SMILES | EC1.5x for Smn protein expression [1] | maximum fold (Fold) increase of Smn protein [1] | EC (1.5-fold increase) [2] [µM] | melting point [°C]
1 | Cc1cn2nc(-c3cc(=O)n4cc(N5CCN[C@@H](C)C5)ccc4n3)cc2c(C)n1 [Compound 121, 2-(4,6-dimethylpyrazolo[1,5-a]pyrazin-2-yl)-7-[(3S)-3-methylpiperazin-1-yl]-4H-pyrido[1,2-a]pyrimidin-4-one] | **** (an EC1.5x≤0.3 μM is indicated by four stars (****)) | ***** (a fold increase >1.65 is indicated by five stars (*****)) | < 0.1 | 192 to 194
2 | COc1ccc(-c2cc(=O)n3cc(-c4ccnc(C)c4)ccc3n2)cc1OC [Compound 122, 2-(3,4-dimethoxyphenyl)-7-(2-methylpyridin-4-yl)-4H-pyrido[1,2-a]pyrimidin-4-one] | – | *** (a fold increase between >1.35 and ≤1.5 is indicated by three stars (***)) | 1 to 3 | 197 to 200
3 | O=c1cc(-c2ccc3nc(C(F)(F)F)cn3c2)nc2ccc(N3CCNCC3)cn12 [Compound 123, 7-(piperazin-1-yl)-2-[2-(trifluoromethyl)imidazo[1,2-a]pyridin-6-yl]-4H-pyrido[1,2-a]pyrimidin-4-one] | – | * (A maximum fold increase of ≤1.2 is indicated by one star (*)) | 1 to 3 | 250 to 255
4 | CCc1cn2cc(-c3cc(=O)n4cc(N5CCNCC5)ccc4n3)ccc2n1 [Compound 124, 2-(2-ethylimidazo[1,2-a]pyridin-6-yl)-7-(piperazin-1-yl)-4H-pyrido[1,2-a]pyrimidin-4-one] | – | ** (a fold increase between >1.2 and ≤1.35 is indicated by two stars (**)) | 0.3 to 1 | 228 to 232
5 | Cc1nc2ccc(-c3cc(=O)n4cc(N5CCNCC5)ccc4n3)cn2c1C [Compound 125, 2-(2,3-dimethylimidazo[1,2-a]pyridin-6-yl)-7-(piperazin-1-yl)-4H-pyrido[1,2-a]pyrimidin-4-one] | – | *** (a fold increase between >1.35 and ≤1.5 is indicated by three stars (***)) | 0.3 to 1 | 236 to 240
6 | COc1ccc(-c2cc(=O)n3cc(N4C[C@H]5CNC[C@H]5C4)ccc3n2)cc1OC [Compound 126, 2-(3,4-dimethoxyphenyl)-7-[(3aR,6aS)-hexahydropyrrolo[3,4-c]pyrrol-2(1H)-yl]-4H-pyrido[1,2-a]pyrimidin-4-one] | – | ** (a fold increase between >1.2 and ≤1.35 is indicated by two stars (**)) | 0.1 to 0.3 | 286 to 290
7 | COc1ccc(-c2cc(=O)n3cc(N4CCC(N)CC4)ccc3n2)cc1OC [Compound 127, 7-(4-aminopiperidin-1-yl)-2-(3,4-dimethoxyphenyl)-4H-pyrido[1,2-a]pyrimidin-4-one] | * (An EC1.5× for Smn protein expression between >3 μM and ≤10 μM is indicated by one star (*)) | *** (a fold increase between >1.35 and ≤1.5 is indicated by three stars (***)) | 0.3 to 1 | 182 to 185
8 | Cn1ccc2cc(-c3cc(=O)n4cc(N5CCNCC5)ccc4n3)cnc21 [Compound 129, 2-(1-methyl-1H-pyrrolo[2,3-b]pyridin-5-yl)-7-(piperazin-1-yl)-4H-pyrido[1,2-a]pyrimidin-4-one] | * (An EC1.5× for Smn protein expression between >3 μM and ≤10 μM is indicated by one star (*)) | *** (a fold increase between >1.35 and ≤1.5 is indicated by three stars (***)) | 0.3 to 1 | 230 to 233
9 | C[C@@H]1CN(c2ccc3nc(-c4cnc5c(ccn5C)c4)cc(=O)n3c2)C[C@H](C)N1 [Compound 130, 7-[(3R,5S)-3,5-dimethylpiperazin-1-yl]-2-(1-methyl-1H-pyrrolo[2,3-b]pyridin-5-yl)-4H-pyrido[1,2-a]pyrimidin-4-one] | * (An EC1.5× for Smn protein expression between >3 μM and ≤10 μM is indicated by one star (*)) | *** (a fold increase between >1.35 and ≤1.5 is indicated by three stars (***)) | 1 to 3 | 265 to 268
10 | Cc1nc2ccc(-c3cc(=O)n4cc(N5CCNCC5)ccc4n3)cc2o1 [Compound 133, 2-(2-methyl-1,3-benzoxazol-6-yl)-7-(piperazin-1-yl)-4H-pyrido[1,2-a]pyrimidin-4-one] | **** (an EC1.5x≤0.3 μM is indicated by four stars (****)) | **** (a fold increase between >1.5 and ≤1.65 is indicated by four stars (****)) | < 0.1 | 219 to 222
11 | Cc1nc2ccc(-c3cc(=O)n4cc(N5CCN[C@@H](C)C5)ccc4n3)cc2o1 [Compound 134, 2-(2-methyl-1,3-benzoxazol-6-yl)-7-[(3S)-3-methylpiperazin-1-yl]-4H-pyrido[1,2-a]pyrimidin-4-one] | **** (an EC1.5x≤0.3 μM is indicated by four stars (****)) | ***** (a fold increase >1.65 is indicated by five stars (*****)) | < 0.1 | 191 to 193
12 | Cc1nc2cc(-c3cc(=O)n4cc(N5CCN[C@@H](C)C5)ccc4n3)ccc2s1 [Compound 135, 2-(2-methyl-1,3-benzothiazol-5-yl)-7-[(3S)-3-methylpiperazin-1-yl]-4H-pyrido[1,2-a]pyrimidin-4-one] | **** (an EC1.5x≤0.3 μM is indicated by four stars (****)) | **** (a fold increase between >1.5 and ≤1.65 is indicated by four stars (****)) | < 0.1 | 174 to 180
13 | Cc1nc2cc(-c3cc(=O)n4cc(N5CCNCC5)ccc4n3)ccc2s1 [Compound 136, 2-(2-methyl-1,3-benzothiazol-5-yl)-7-(piperazin-1-yl)-4H-pyrido[1,2-a]pyrimidin-4-one] | **** (an EC1.5x≤0.3 μM is indicated by four stars (****)) | ***** (a fold increase >1.65 is indicated by five stars (*****)) | < 0.1 | 228 to 230
14 | Cn1cc2cc(-c3cc(=O)n4cc(N5CCNCC5)ccc4n3)ccc2n1 [Compound 137, 2-(2-methyl-2H-indazol-5-yl)-7-(piperazin-1-yl)-4H-pyrido[1,2-a]pyrimidin-4-one] | *** (an EC1.5× between >0.3 μM and ≤1 μM is indicated by three stars (***)) | ***** (a fold increase >1.65 is indicated by five stars (*****)) | 0.1 to 0.3 | 175 to 180
15 | C[C@H]1CN(c2ccc3nc(-c4ccc5nn(C)cc5c4)cc(=O)n3c2)CCN1 [Compound 138, 2-(2-methyl-2H-indazol-5-yl)-7-[(3S)-3-methylpiperazin-1-yl]-4H-pyrido[1,2-a]pyrimidin-4-one] | *** (an EC1.5× between >0.3 μM and ≤1 μM is indicated by three stars (***)) | ***** (a fold increase >1.65 is indicated by five stars (*****)) | 0.1 to 0.3 | 166 to 170
